Where two headings read alike, the source gives them in different places. In the oligonucleotide strings, read from the 5' end, every base follows the letter of its sugar. An asterisk marks phosphorothioate; unmarked linkages are phosphodiester. Other units and linkages are bracketed, terminal groups are in braces. A string of capitals states the bases alone. e = 2'-O-(2-methoxyethyl) (MOE); [5mC] = 5-methylcytosine; d = 2'-deoxy (DNA)

These results are taken from US20120214862A1, “MODULATION OF FACTOR 7 EXPRESSION” (ISIS Pharmaceuticals, Inc., priority 2009, published 2012).

One data set relates to murine Factor 7 protein. Kind of data set: Plasma Factor 7 protein, Factor 7 chromogenic assay (Hyphen BioMed), BALB/c mice. The format is in vivo, mouse. As to conditions: for % inhibition of murine Factor 7 protein (plasma): relative to PBS control. On the procedure:
BALB/c mice were treated with ISIS 403102 ([…], target site 11336, incorporated herein as SEQ ID NO: 161). BALB/c mice were injected subcutaneously with 5 mg/kg, 10 mg/kg, 25 mg/kg, or 50 mg/kg of ISIS 403102 twice a week for 3 weeks. A control group of mice was injected subcutaneously with PBS twice a week for 3 weeks. After the treatment period, whole liver was collected for RNA and protein analysis, and plasma was collected for clotting analysis (PT/aPTT).
Plasma Factor 7 protein was measured using a Factor 7 chromogenic assay (Hyphen BioMed). […] Results are presented as percent inhibition of Factor 7, relative to control.

The subject of the next data set is BALB/c mice. As to conditions: mouse, in vivo.
For another data set, the system named is human Factor 7 mRNA. Kind of data set: Dose-dependent antisense inhibition of human Factor 7 in HepB3 cells, transfection with lipofectin. The format is cell-based. As to conditions: for percent inhibition of Factor 7 mRNA, relative to untreated control cells: lipofectin, HepB3 cells, 16 hours; for percent inhibition of Factor 7 mRNA, 3.125 nM / percent inhibition of Factor 7 mRNA, 6.25 nM / percent inhibition of Factor 7 mRNA, 12.5 nM / percent inhibition of Factor 7 mRNA, 25.0 nM / percent inhibition of Factor 7 mRNA, 50.0 nM / percent inhibition of Factor 7 mRNA, 100.0 nM: HepB3, lipofectin, ~16 h. The gist of the method:
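HepB3 cells (4,000/well) lipofectin-transfected with antisense oligonucleotide at 3.125 or 6.25 up to 100 nM for ~16 h. Factor 7 mRNA measured by real-time RT-PCR with primer probe set RTS 2927, adjusted to RIBOGREEN total RNA; expressed as percent inhibition versus untreated control cells.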

Take “CCATAGAACAGCTTCACAGG (sugars from the 5' end e5 d10 e5, backbone and methylation of C not given here) [ISIS 403102]”: the “% inhibition of murine Factor 7 protein (plasma)” value worked out at 71% in the data set on murine Factor 7 protein (5 mg/kg s.c. twice a week for 3 weeks), 88% in the data set with murine Factor 7 protein (10 mg/kg s.c. twice a week for 3 weeks), 99% in the data set on murine Factor 7 protein (25 mg/kg s.c. twice a week for 3 weeks) and 99% with murine Factor 7 protein (50 mg/kg s.c. twice a week for 3 weeks). For the same substance, the “reduction of murine Factor 7 protein over PBS control” value with murine Factor 7 protein (5-50 mg/kg sc twice a week for 3 weeks, plasma) is on record as “dose-dependent reduction”. Moreover, the “amount of bleeding in comparison to PBS treated mice” value in the data set on BALB/c mice was “slight decrease in the amount of bleeding”; in the data set on BALB/c mice (sc, 50 mg/kg), “Bleeding was the same”. Besides, the “bleeding as compared to PBS control mice” value in the data set with BALB/c mice is given as “did not significantly affect bleeding”. For the same substance, the “Blood” value in the data set on BALB/c mice (sc, 25 mg/kg) came out at 0.06 g; in the data set with BALB/c mice (sc, 37.5 mg/kg), 0.06 g; in the data set on BALB/c mice (sc, 40 mg/kg), 0.10 g; in the data set on BALB/c mice (sc, 50 mg/kg) it was 0.10 g. Also, in the data set on BALB/c mice (sc, 40 mg/kg), the “bleeding compared to PBS treated mice” value is listed as “less bleeding than PBS treated mice”.
With “407935 (antisense eA*eT*eG*e[5mC]*eA*dT*dG*dG*dT*dG*dA*dT*dG*d[5mC]*dT*eT*e[5mC]*eT*eG*eA) [compound 407935]”, the “percent inhibition of Factor 7 mRNA, relative to untreated control cells” value turned out to be 19% with human Factor 7 mRNA (3.125 nM); 58% in the data set on human Factor 7 mRNA (12.5 nM); 70% with human Factor 7 mRNA (25 nM); 85% in the data set with human Factor 7 mRNA (50 nM); 87% in the data set with human Factor 7 mRNA (100 nM); 39% in the data set with human Factor 7 mRNA. Besides, the “percent inhibition of Factor 7 mRNA, 3.125 nM” value with human Factor 7 mRNA (Example 2, 3.125 nM) is listed as 57%. The “percent inhibition of Factor 7 mRNA, 6.25 nM” value in the data set with human Factor 7 mRNA (Example 2) was found to be 76%; with human Factor 7 mRNA (Example 5), 38%. Also, the “percent inhibition of Factor 7 mRNA, 12.5 nM” value was determined as 78% in the data set on human Factor 7 mRNA (Example 2, 12.5 nM) and 53% in the data set with human Factor 7 mRNA (Example 5, 12.5 nM). The “percent inhibition of Factor 7 mRNA, 25.0 nM” value in the data set on human Factor 7 mRNA (Example 2) is 89%; with human Factor 7 mRNA (Example 5), 70%. Besides, the “percent inhibition of Factor 7 mRNA, 50.0 nM” value in the data set on human Factor 7 mRNA (Example 2) was determined as 90%; in the data set on human Factor 7 mRNA (Example 5), 82%. The entries for the “percent inhibition of Factor 7 mRNA, 100.0 nM” value with human Factor 7 mRNA (Example 2) and with human Factor 7 mRNA (Example 5) were 89% and 86%, respectively.
For “407939 (antisense eT*eG*e[5mC]*eA*eG*d[5mC]*d[5mC]*d[5mC]*dG*dG*d[5mC]*dA*d[5mC]*d[5mC]*d[5mC]*eA*eG*e[5mC]*eG*eA) [compound 407939]”, the “percent inhibition of Factor 7 mRNA, relative to untreated control cells” value in the data set on human Factor 7 mRNA (3.125 nM) turned out to be 17%; in the data set on human Factor 7 mRNA (12.5 nM), 57%; in the data set with human Factor 7 mRNA (25 nM) it was 75%; in the data set with human Factor 7 mRNA (50 nM), 80%; with human Factor 7 mRNA (100 nM), 83%; with human Factor 7 mRNA it was 35%. In addition, the “percent inhibition of Factor 7 mRNA, 3.125 nM” value with human Factor 7 mRNA (Example 2, 3.125 nM) is 62%. Also, the “percent inhibition of Factor 7 mRNA, 6.25 nM” value worked out at 79% in the data set with human Factor 7 mRNA (Example 2) and 37% in the data set on human Factor 7 mRNA (Example 5). Moreover, the “percent inhibition of Factor 7 mRNA, 12.5 nM” value with human Factor 7 mRNA (Example 2, 12.5 nM) worked out at 83%; in the data set on human Factor 7 mRNA (Example 5, 12.5 nM), 57%. Also, the “percent inhibition of Factor 7 mRNA, 25.0 nM” value is listed as 91% in the data set on human Factor 7 mRNA (Example 2) and 77% in the data set on human Factor 7 mRNA (Example 5). In addition, the “percent inhibition of Factor 7 mRNA, 50.0 nM” value in the data set on human Factor 7 mRNA (Example 2) came out at 92%; in the data set with human Factor 7 mRNA (Example 5), 84%. In addition, the “percent inhibition of Factor 7 mRNA, 100.0 nM” value was found to be 92% with human Factor 7 mRNA (Example 2) and 87% with human Factor 7 mRNA (Example 5).
